Holding throughout (format): physicochemical
A short description of data set [1]: Chemical stability evaluation (storage 1 week, related substances by HPLC, observation of sample).
Method: Each sample was stored at 60° C. under a sealed condition and at 60° C. under 75% RH for 1 week, an increase or decrease of related substances after the storage was calculated by high-performance liquid chromatographic method on the basis of the area percentage of each peak. Also, the condition of each sample after the storage was observed.
Data set [2] can be described thus: Hygroscopicity or deliquescency evaluation (moisture adsorption, DVS). The protocol: Hygroscopicity or deliquescency was evaluated as follows by using a moisture adsorption measurement device DVS-1 or DVS-intrinsic (Surface Measurement Systems Limited). Each sample was placed into a cell of which the tare weight had been corrected in advance, and the cell was hung on the precision balance of said device to precisely measure the weight at the start of measurement. The humidity was changed in a stepwise manner, the weight change was recorded with time, and the equilibrium weight was calculated at each humidity. On the basis of the weight of anhydride converted from the amount of water at a dried condition (0% RH) or at the start of measurement observed by an alternative method, the weight change rate at each humidity was calculated.

A short description of data set [3]: Thermal stability evaluation (TG/DTA). As to conditions: for Thermal stability TG: weight change: 10 K/min, nitrogen. As for the experimental part: Thermal stability was evaluated by using a thermogravimetry/differential thermal analyzer TG/DTA7200 (SII NanoTechnology Inc.) under the following conditions. • Rate of temperature increase: 10 K/min • Atmosphere: nitrogen 200 mL/min <Hygroscopicity or Deliquescency Evaluation>

Molecules are shown by their SMILES. Structures can show the parent of a compound that is named as a salt. Where two headings read alike, the source gives them in different places.

Regarding `COC[C@H]1CN(C(=O)[C@]2(F)CN(C3CCCC3)C[C@H]2c2ccc(OC)cc2)C[C@@H]1c1ccc(C(F)(F)F)cc1N1CCC(C(=O)O)CC1` [Crystal of free form, 1-{2-[(3S,4R)-1-[(3R,4R)-1-cyclopentyl-3-fluoro-4-(4-methoxyphenyl)pyrrolidine-3-carbonyl]-4-(methoxymethyl)pyrrolidin-3-yl]-5-(trifluoromethyl)phenyl}piperidine-4-carboxylic acid], the “Chemical stability” value in data set [1] was “poor”.
For the compound `COC[C@H]1CN(C(=O)[C@]2(F)CN(C3CCCC3)C[C@H]2c2ccc(OC)cc2)C[C@@H]1c1ccc(C(F)(F)F)cc1N1CCC(C(=O)O)CC1` [Amorphous of hydrochloride, 1-{2-[(3S,4R)-1-[(3R,4R)-1-cyclopentyl-3-fluoro-4-(4-methoxyphenyl)pyrrolidine-3-carbonyl]-4-(methoxymethyl)pyrrolidin-3-yl]-5-(trifluoromethyl)phenyl}piperidine-4-carboxylic acid], the “Chemical stability: condition of sample after the storage” value in data set [1] (60° C., 75% RH, 1 week) was “deliquescent”. Moreover, in data set [2], the “Deliquescency” value is on record as “deliquescent” and the “Hygroscopicity or Deliquescency: Weight change under 90% RH” value stood at 11.87%. In addition, the “Deliquescency” value in data set [2] (listed as hydrochloride of the Pyrrolidine compound A) is reported as “has deliquescency”. In addition, the “Hygroscopicity or Deliquescency: observation (deliquescent)” value in data set [2] (under 90% RH) is given as “deliquescent”. Further, the “Thermal stability TG: weight change” value in data set [3] (30-150° C.) was found to be 4.8%.
In the case of `COC[C@H]1CN(C(=O)[C@]2(F)CN(C3CCCC3)C[C@H]2c2ccc(OC)cc2)C[C@@H]1c1ccc(C(F)(F)F)cc1N1CCC(C(=O)O)CC1` [Amorphous of free form, 1-{2-[(3S,4R)-1-[(3R,4R)-1-cyclopentyl-3-fluoro-4-(4-methoxyphenyl)pyrrolidine-3-carbonyl]-4-(methoxymethyl)pyrrolidin-3-yl]-5-(trifluoromethyl)phenyl}piperidine-4-carboxylic acid], the “Hygroscopicity or Deliquescency: Weight change under 90% RH” value in data set [2] is reported as 1.8%. For the same compound, the “Thermal stability TG: weight change” value in data set [3] (30-130° C.) amounted to 2.2%.
`COC[C@H]1CN(C(=O)[C@]2(F)CN(C3CCCC3)C[C@H]2c2ccc(OC)cc2)C[C@@H]1c1ccc(C(F)(F)F)cc1N1CCC(C(=O)O)CC1` [Present crystal, 1-{2-[(3S,4R)-1-[(3R,4R)-1-cyclopentyl-3-fluoro-4-(4-methoxyphenyl)pyrrolidine-3-carbonyl]-4-(methoxymethyl)pyrrolidin-3-yl]-5-(trifluoromethyl)phenyl}piperidine-4-carboxylic acid]: in data set [2] (listed as Phosphoric acid Form B crystal), the “Deliquescency” value is “not deliquescent”. The “Thermal stability TG: weight change” value in data set [3] (30-230° C.) was “No change”. Also, the “Weight change on heating” value in data set [3] (even at 200° C. or more) is given as “did not show a weight change”.

(Values after patent publication US12077524B2, “Crystal of pyrrolidine compound” (MITSUBISHI TANABE PHARMA CORPORATION, priority 2018, dated 2024).)
